Earlier results, collected in paper PMC4753123 (Archives of biochemistry and biophysics, 2015).

Target: T1, Mtm1p (Saccharomyces cerevisiae, UniProt P53320)
T1 sequence (P53320 1-366): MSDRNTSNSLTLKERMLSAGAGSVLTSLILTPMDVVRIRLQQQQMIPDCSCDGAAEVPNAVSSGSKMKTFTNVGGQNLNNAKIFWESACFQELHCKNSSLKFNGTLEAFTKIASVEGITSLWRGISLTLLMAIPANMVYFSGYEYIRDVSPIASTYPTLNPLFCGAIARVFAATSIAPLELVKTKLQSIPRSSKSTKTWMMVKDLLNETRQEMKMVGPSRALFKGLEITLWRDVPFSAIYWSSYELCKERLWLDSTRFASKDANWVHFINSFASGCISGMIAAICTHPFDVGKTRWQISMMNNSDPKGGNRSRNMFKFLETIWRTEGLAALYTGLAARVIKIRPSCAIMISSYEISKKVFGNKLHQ
Test: fluorescence titration
Format: binding
Settings: purified recombinant protein

Which Kd does the source give for `Cc1ncc(COP(=O)(O)O)c(C=O)c1O` [PLP] here?
Its Kd is 0.6 µM.
